Counter-ions that a name gives are not always drawn.
test system: Mouse 3T3 adipocytes; experiment: Measurement of fat metabolic activity for mouse 3T3 adipocytes (free glycerol in culture medium); assay type: cell-based; conditions: 250 μM test substance, medium recovered after 24 hours; control (none) = 100
Method: The five carnitine and carnitine derivatives 1) to 5) used in Example 1 were tested. The fat metabolic activity was measured and compared by quantitative determination of glycerol in the culture medium based on the fact that metabolism of the fat accumulated in adipocytes releases glycerol and free fatty acid to the culture medium.
Mouse 3T3 cells as the preadipocytes were disseminated on a 10 cm-diameter dish such that 1×10^4 cells were on the dish. […] Thereafter, the culture medium was replaced with a 10% FCS-containing DMEM culture medium that contained […] of dexamethasone, 0.5 mM of isobutylmethylxanthine and 10 μg/ml of insulin, and incubation was continued for another 2 days. Subsequently, the culture medium was replaced again with a 10% FCS-containing ordinary DMEM culture medium, and incubation was performed for another week, resulting in differentiation of the preadipocytes into adipocytes. Next, the culture medium was replaced with an ordinary culture medium that contained 250 μM of the carnitine or carnitine derivative of the five substances 1) to 5) used in Example 1, and the culture medium was recovered after 24 hours. The cells were washed with Dulbecco's PBS (−) and were recovered. Cells incubated in the absence of the test substances were used as the control. The glycerol content in the culture medium was quantitatively determined using Glycerol Test E Wako (Wako Pure Chemical Industries, Ltd.).
The fat metabolic activity for mouse 3T3 adipocytes was determined based on the free glycerol content in the same manner as in Example 2, except that the two carnitine and carnitine derivative 1) and 6) used in Example 4 were tested.
The fat metabolic activity for mouse 3T3 adipocytes was determined based on the free glycerol content in the same manner as in Example 2, except that the three carnitine and carnitine derivatives 1), 7) and 8) used in Example 7 were tested.

Row | Molecule | Free glycerol content (% relative to the control)
1 | CCCCCCCCCCCCCCCCCC(=O)O[C@H](CC(=O)O)C[N+](C)(C)C.[Cl-] [Test substance 5), Octadecanoyl-L-carnitine hydrochloride] | 176 % relative to the control
2 | CCCCCCCCCCCCCCCC(=O)O[C@H](CC(=O)OC)C[N+](C)(C)C.[Cl-] [Test substance 7), Hexadecanoyl-L-carnitine methyl ester hydrochloride] | 143 % relative to the control
3 | CCCCCCCCCCCCCCCCOC(=O)C[C@H](C[N+](C)(C)C)OC(=O)CCCCCCCCCCCCCCC.[Cl-] [Test substance 8), Hexadecanoyl-L-carnitine hexadecyl ester hydrochloride] | 148 % relative to the control
4 | CCCCCCCCCCCCCCCC(=O)O[C@H](CC(=O)O)C[N+](C)(C)C.[Cl-] [Test substance 4), Hexadecanoyl-L-carnitine hydrochloride] | 180 % relative to the control
5 | CCCCCCCCCCCCCCCCOC(=O)C[C@@H](O)C[N+](C)(C)C.[Cl-] [Test substance 6), L-Carnitine hexadecyl ester hydrochloride] | 165 % relative to the control
6 | C[N+](C)(C)C[C@H](O)CC(=O)[O-] [Test substance 1), L-Carnitine, reference compound] | 120 % relative to the control

test system: skin together with subcutaneous fat tissues; experiment: Subcutaneous fat breakdown test (rat abdominal skin with subcutaneous fat in Franz diffusion cell); conditions: lower cell PBS (−), 37° C., 8 hours; average of three measurements; control (none) 20
Method: A male Wister rat, 10 weeks old, was shaved on the abdomen, and the skin was removed together with subcutaneous fat tissues and was placed in a Franz diffusion cell. An upper cell on the skin surface was filled with a buffer solution containing the Example 1 test substance, and a lower cell was filled with Dulbecco's PBS (−). The diffusion cell was held at 37° C. and was allowed to stand for 8 or 16 hours. After the lapse of each of the standing times, PBS (−) was withdrawn from the lower cell. The content of free glycerol resulting from the fat breakdown was measured with use of Glycerol Test E Wako. The results are averages of three measurements.
The free glycerol contents were measured in the same manner as in Example 3, except that the two carnitine and carnitine derivative 1) and 6) used in Example 4 were tested. The results are averages of three measurements.
The free glycerol contents were measured in the same manner as in Example 3, except that the three carnitine and carnitine derivatives 1), 7) and 8) used in Example 7 were tested. The results are averages of three measurements.

Row | Molecule | Free glycerol, After 8 hours [µmol/mL]
7 | CCCCCCCCCCCCCCCCCC(=O)O[C@H](CC(=O)O)C[N+](C)(C)C.[Cl-] [Test substance 5), Octadecanoyl-L-carnitine hydrochloride] | 117
8 | CCCCCCCCCCCCCCCC(=O)O[C@H](CC(=O)OC)C[N+](C)(C)C.[Cl-] [Test substance 7), Hexadecanoyl-L-carnitine methyl ester hydrochloride] | 68
9 | CCCCCCCCCCCCCCCCOC(=O)C[C@H](C[N+](C)(C)C)OC(=O)CCCCCCCCCCCCCCC.[Cl-] [Test substance 8), Hexadecanoyl-L-carnitine hexadecyl ester hydrochloride] | 75
10 | CCCCCCCCCCCCCCCC(=O)O[C@H](CC(=O)O)C[N+](C)(C)C.[Cl-] [Test substance 4), Hexadecanoyl-L-carnitine hydrochloride] | 125
11 | CCCCCCCCCCCCCCCCOC(=O)C[C@@H](O)C[N+](C)(C)C.[Cl-] [Test substance 6), L-Carnitine hexadecyl ester hydrochloride] | 110
12 | C[N+](C)(C)C[C@H](O)CC(=O)[O-] [Test substance 1), L-Carnitine, reference compound] | 120

same assay, conditions: lower cell PBS (−), 37° C., 16 hours; average of three measurements; control (none) 20

Row | Molecule | Free glycerol, After 16 hours [µmol/mL]
13 | CCCCCCCCCCCCCCCCCC(=O)O[C@H](CC(=O)O)C[N+](C)(C)C.[Cl-] [Test substance 5), Octadecanoyl-L-carnitine hydrochloride] | 158
14 | CCCCCCCCCCCCCCCC(=O)O[C@H](CC(=O)OC)C[N+](C)(C)C.[Cl-] [Test substance 7), Hexadecanoyl-L-carnitine methyl ester hydrochloride] | 145
15 | CCCCCCCCCCCCCCCCOC(=O)C[C@H](C[N+](C)(C)C)OC(=O)CCCCCCCCCCCCCCC.[Cl-] [Test substance 8), Hexadecanoyl-L-carnitine hexadecyl ester hydrochloride] | 150
16 | CCCCCCCCCCCCCCCC(=O)O[C@H](CC(=O)O)C[N+](C)(C)C.[Cl-] [Test substance 4), Hexadecanoyl-L-carnitine hydrochloride] | 170
17 | CCCCCCCCCCCCCCCCOC(=O)C[C@@H](O)C[N+](C)(C)C.[Cl-] [Test substance 6), L-Carnitine hexadecyl ester hydrochloride] | 116
18 | C[N+](C)(C)C[C@H](O)CC(=O)[O-] [Test substance 1), L-Carnitine, reference compound] | 125

test system: Mouse 3T3-F442A cells; experiment: Triglyceride accumulation in adipocytes with base acylcarnitine plus test substance (oil red staining); assay type: cell-based; conditions: base hexadecanoyl-L-carnitine hydrochloride plus 50 μM test substance (ginkgo biloba extract 30 μg/ml; garcinia extract as hydroxycitric acid), 4 days; control = base alone
Method: The incubation was continued for another 4 days. The control was incubated using a culture medium that contained the base alone (no test substances). After the 4-days incubation, the cells were washed three times with Dulbecco's PBS (−). The triglyceride amount accumulated in the cells was quantitatively determined by oil red staining. […] Mouse 3T3-F442A cells were incubated as described in Example 10, and differentiation into adipocytes was observed. […] The incubation was continued for another 4 days. The control was incubated using a culture medium that contained the base alone (no test substances). After the 4-days incubation, the cells were washed three times with Dulbecco's PBS (−). The triglyceride amount accumulated in the cells was quantitatively determined by oil red staining.

Row | Molecule | accumulated triglyceride amount relative to the control (100%), Base Hexadecanoyl-L-carnitine hydrochloride [%]
19 | O=C1O[C@H]([C@@H](O)CO)C(O)=C1O[C@H]1O[C@H](CO)[C@@H](O)[C@H](O)[C@H]1O [Ascorbic acid-2-glucoside] | 99
20 | Cc1ccc(N(CC2=NCCN2)c2cccc(O)c2)cc1 [Phentolamine hydrochloride] | 68
21 | Calcium hydroxycitrate | 89
22 | CCCCCCCCCCCCCCCCCC(=O)O [Stearic acid] | 101
23 | Cn1c(=O)c2[nH]cnc2n(C)c1=O [Theophylline] | 62

same assay, conditions: base octadecanoyl-L-carnitine hydrochloride plus 50 μM test substance (ginkgo biloba extract 30 μg/ml; garcinia extract as hydroxycitric acid), 4 days; control = base alone

Row | Molecule | accumulated triglyceride amount relative to the control (100%), Base Octadecanoyl-L-carnitine hydrochloride [%]
24 | O=C1O[C@H]([C@@H](O)CO)C(O)=C1O[C@H]1O[C@H](CO)[C@@H](O)[C@H](O)[C@H]1O [Ascorbic acid-2-glucoside] | 102
25 | Cc1ccc(N(CC2=NCCN2)c2cccc(O)c2)cc1 [Phentolamine hydrochloride] | 65
26 | Calcium hydroxycitrate | 88
27 | CCCCCCCCCCCCCCCCCC(=O)O [Stearic acid] | 99
28 | Cn1c(=O)c2[nH]cnc2n(C)c1=O [Theophylline] | 58

test system: human skin tissue three dimensional model (TESTSKIN LSD-d); experiment: not given; conditions: not given

Row | Molecule | carnitine content in the skin model, After 2-hour incubation [nmol/mg skin protein] | carnitine content in the skin model, After 6-hour incubation [nmol/mg skin protein] | carnitine content in the skin model, After 12-hour incubation [nmol/mg skin protein]
29 | CCCCCCCCCCCCCCCCCC(=O)O[C@H](CC(=O)O)C[N+](C)(C)C.[Cl-] [Test substance 5), Octadecanoyl-L-carnitine hydrochloride] | 5 | 10 | 25
30 | CCCCCCCCCCCCCCCC(=O)O[C@H](CC(=O)O)C[N+](C)(C)C.[Cl-] [Test substance 4), Hexadecanoyl-L-carnitine hydrochloride] | 6 | 10 | 23

test system: human skin tissue three dimensional model (TESTSKIN LSD-d); experiment: Comparison of percutaneous absorption properties: carnitine content in skin model; conditions: 1% by mass solution, 50 μL on tissue surface for 2 hours, then 2-hour incubation at 37° C.
Method: The test substances were each dissolved in Dulbecco's PBS (−) to give a 1% by mass solution of the test substance. The test substance solutions were placed, each 50 μL, to a tissue surface of human skin tissue three dimensional model (TESTSKIN™ LSD-d, available from TOYOBO CO., LTD.), and were incubated at 37° C. in a 5% CO2 atmosphere for 2 hours. Thereafter the test substance solutions were aspirated out, and the skin models were further incubated at 37° C. in a 5% CO2 atmosphere for 2, 6 or 12 hours. The skin models were sampled after the lapse of each of the incubation times. The skin models sampled at the incubation times were washed with Dulbecco's PBS (−), and the tissue surfaces on which the test substances had been placed were punched out with a punch 6 mm in diameter. The skin models were then homogenated in a HEPES buffer solution (pH: 7.2), and were quantitatively analyzed using a high performance liquid chromatography to determine the carnitine content in the skin model.
From the analysis results, the carnitine contents in the skin models (unit: nmol/mg skin protein) were obtained for the test substances at each of the incubation times.

Row | Molecule | carnitine content in the skin model, After 2-hour incubation [nmol/mg skin protein]
31 | CCCCCCCCCCCCCCCC(=O)O[C@H](CC(=O)OC)C[N+](C)(C)C.[Cl-] [Test substance 7), Hexadecanoyl-L-carnitine methyl ester hydrochloride] | 2
32 | CCCCCCCCCCCCCCCCOC(=O)C[C@H](C[N+](C)(C)C)OC(=O)CCCCCCCCCCCCCCC.[Cl-] [Test substance 8), Hexadecanoyl-L-carnitine hexadecyl ester hydrochloride] | 2
33 | CCCCCCCCCCCCCCCCOC(=O)C[C@@H](O)C[N+](C)(C)C.[Cl-] [Test substance 6), L-Carnitine hexadecyl ester hydrochloride] | 5
34 | C[N+](C)(C)C[C@H](O)CC(=O)[O-] [Test substance 1), L-Carnitine, reference compound] | 12

same assay, conditions: 1% by mass solution, 50 μL on tissue surface for 2 hours, then 6-hour incubation at 37° C.

Row | Molecule | carnitine content in the skin model, After 6-hour incubation [nmol/mg skin protein]
35 | CCCCCCCCCCCCCCCC(=O)O[C@H](CC(=O)OC)C[N+](C)(C)C.[Cl-] [Test substance 7), Hexadecanoyl-L-carnitine methyl ester hydrochloride] | 9
36 | CCCCCCCCCCCCCCCCOC(=O)C[C@H](C[N+](C)(C)C)OC(=O)CCCCCCCCCCCCCCC.[Cl-] [Test substance 8), Hexadecanoyl-L-carnitine hexadecyl ester hydrochloride] | 8
37 | CCCCCCCCCCCCCCCCOC(=O)C[C@@H](O)C[N+](C)(C)C.[Cl-] [Test substance 6), L-Carnitine hexadecyl ester hydrochloride] | 11
38 | C[N+](C)(C)C[C@H](O)CC(=O)[O-] [Test substance 1), L-Carnitine, reference compound] | 12

same assay, conditions: 1% by mass solution, 50 μL on tissue surface for 2 hours, then 12-hour incubation at 37° C.

Row | Molecule | carnitine content in the skin model, After 12-hour incubation [nmol/mg skin protein]
39 | CCCCCCCCCCCCCCCC(=O)O[C@H](CC(=O)OC)C[N+](C)(C)C.[Cl-] [Test substance 7), Hexadecanoyl-L-carnitine methyl ester hydrochloride] | 19
40 | CCCCCCCCCCCCCCCCOC(=O)C[C@H](C[N+](C)(C)C)OC(=O)CCCCCCCCCCCCCCC.[Cl-] [Test substance 8), Hexadecanoyl-L-carnitine hexadecyl ester hydrochloride] | 21
41 | CCCCCCCCCCCCCCCCOC(=O)C[C@@H](O)C[N+](C)(C)C.[Cl-] [Test substance 6), L-Carnitine hexadecyl ester hydrochloride] | 26
42 | C[N+](C)(C)C[C@H](O)CC(=O)[O-] [Test substance 1), L-Carnitine, reference compound] | 11
